{"source": "patent US20120010229A1", "about": "“THERAPEUTIC REGIMENS FOR HEDGEHOG-ASSOCIATED CANCERS” (priority 2010, published 2012)", "key": {"[1]": {"system": "Sonic Hedgehog (SHH) ligand expression in bladder cancer cells", "experiment": "Sonic Hedgehog ligand expression in bladder cancer cells after chemotherapy", "format": "cell-based, human", "conditions": "over time after chemotherapy", "source_text": "Similar results showing increases in Hh ligand expression in response to chemotherapy have been found in other tumor cells. For example, chemotherapy increases in Sonic Hedgehog (SHH) ligand expression in bladder cancer cells are depicted in FIGS. 4A-4D."}, "Pgp": {"target": "Pgp (Homo sapiens, UniProt P08183)", "sequence (P08183 whole entry)": "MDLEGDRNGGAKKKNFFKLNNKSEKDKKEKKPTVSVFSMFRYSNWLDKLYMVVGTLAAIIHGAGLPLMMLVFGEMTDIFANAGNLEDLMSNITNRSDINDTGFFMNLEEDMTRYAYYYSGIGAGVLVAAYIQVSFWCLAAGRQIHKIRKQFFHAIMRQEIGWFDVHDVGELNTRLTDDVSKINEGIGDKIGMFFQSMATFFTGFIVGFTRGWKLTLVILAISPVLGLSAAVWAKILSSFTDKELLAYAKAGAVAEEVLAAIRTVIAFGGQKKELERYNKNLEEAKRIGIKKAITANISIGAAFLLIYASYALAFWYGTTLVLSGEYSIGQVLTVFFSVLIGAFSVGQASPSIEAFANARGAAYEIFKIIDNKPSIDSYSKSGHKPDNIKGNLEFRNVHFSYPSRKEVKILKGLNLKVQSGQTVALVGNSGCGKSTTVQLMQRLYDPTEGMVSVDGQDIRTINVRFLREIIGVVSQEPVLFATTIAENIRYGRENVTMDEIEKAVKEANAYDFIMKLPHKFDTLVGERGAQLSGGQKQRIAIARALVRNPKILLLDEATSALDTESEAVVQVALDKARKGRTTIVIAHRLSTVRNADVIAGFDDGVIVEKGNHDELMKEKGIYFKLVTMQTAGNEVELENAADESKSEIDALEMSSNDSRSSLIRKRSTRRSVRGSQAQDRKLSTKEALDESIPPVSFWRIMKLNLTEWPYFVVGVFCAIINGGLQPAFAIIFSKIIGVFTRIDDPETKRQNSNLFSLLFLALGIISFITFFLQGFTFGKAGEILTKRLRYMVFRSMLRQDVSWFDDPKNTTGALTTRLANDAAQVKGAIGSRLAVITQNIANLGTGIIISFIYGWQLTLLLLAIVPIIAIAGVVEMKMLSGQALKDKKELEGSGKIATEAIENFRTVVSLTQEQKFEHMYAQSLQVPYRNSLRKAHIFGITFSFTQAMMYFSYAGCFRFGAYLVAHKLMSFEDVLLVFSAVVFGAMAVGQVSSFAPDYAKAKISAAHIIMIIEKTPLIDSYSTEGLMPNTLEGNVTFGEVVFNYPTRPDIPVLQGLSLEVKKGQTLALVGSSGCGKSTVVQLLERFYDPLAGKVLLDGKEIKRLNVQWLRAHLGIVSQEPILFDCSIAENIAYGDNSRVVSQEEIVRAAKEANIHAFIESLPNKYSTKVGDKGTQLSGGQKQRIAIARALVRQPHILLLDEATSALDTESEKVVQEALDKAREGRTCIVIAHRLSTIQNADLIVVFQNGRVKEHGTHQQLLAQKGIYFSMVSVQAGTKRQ", "conditions": "cited from earlier work"}, "hedgehog pathway": {"system": "hedgehog pathway", "experiment": "C3H10T1/2 alkaline phosphatase assay (Shh-dependent osteoblast differentiation)", "format": "cell-based", "conditions": "Mus musculus, C3H 10T1/2; sonic hedgehog 250 ng/ml; AP normalized to total protein; read-out: IC50, antagonist of the hedgehog pathway (AP activity)", "source_text": "Cancer cell killing by inhibition of a component of the hedgehog pathway can be ascertained using the following assay. C3H10T1/2 cells differentiate into osteoblasts when contacted with the sonic hedgehog peptide (Shh-N). Upon differentiation, these osteoblasts produce high levels of alkaline phosphatase (AP) which can be measured in an enzymatic assay (Nakamura et al., 1997 BBRC 237: 465). Compounds that block the differentiation of C3H10T1/2 into osteoblasts (a Shh dependent event) can therefore be identified by a reduction in AP production (van der Horst et al., 2003 Bone 33: 899). The assay details are described below. Additional assays to ascertain the activity of hedgehog inhibitors, including IPI-926, are described in US 2009/0181997 by Grayzel et al.; U.S. Ser. No. 61/327,373 and 61/331,365, filed on Apr. 23, 2010 and May 4, 2010, respectively; the entire contents of the aforesaid applications are incorporated herein by reference. […]\nC3H10T1/2 cells were plated in 96 wells with a density of 8×10^3 cells/well. […] After incubating for 30 min at 37° C., the plates were read on an Envision plate reader at 405 nm. Total protein was quantified with a BCA protein assay kit from Pierce according to manufacturer's instructions. […]"}, "[2]": {"system": "LuCaP35V (Castration Resistant) primary prostate cancer", "experiment": "LuCaP35V castration resistant primary prostate cancer model", "format": "in vivo", "conditions": "docetaxel IV Q14D for 28 days, docetaxel+vehicle samples", "source_text": "The effects of IPI-926 were examined following docetaxel chemotherapy in a model of castration resistant prostate cancer. Prostate cancer is known to be a highly desmoplastic cancer, and one that preferentially metastasizes to bone. Sonic hedgehog ligand is expressed in clinical specimens and primary xenograft models. […] FIG. 7 summarizes the effects of IPI-926 in LuCaP35V (Castration Resistant) primary prostate cancer model. Days of docetaxel and IPI-926 administration are indicated by the arrowheads at the indicated days post-implant. The following samples were tested: Vehicle control (administered orally once a day), 40 mg/kg of IPI-926 (administered orally once a day), docetaxel (administered intravenously Q14D for 28 days), or docetaxel (administered intravenously Q14D for 28 days) followed by 40 mg/kg of IPI-926, as shown in FIG. 7. […] Thus, IPI-926 can be useful as maintenance therapy in prostate cancer."}, "[3]": {"system": "Ptch1+/-; p53-/- medulloblastoma", "conditions": "cited from earlier work"}}, "note": "pIC50: −log10 of the molar value. Where a name gives a salt, the structure may show the parent alone.", "data": [{"compound": "COc1cccc2c1C(=O)c1c(O)c3c(c(O)c1C2=O)C[C@@](O)(C(=O)CO)C[C@@H]3O[C@H]1C[C@H](N)[C@H](O)[C@H](C)O1", "note": "[Doxorubicin]", "values": [{"measurement": "Sonic Hedgehog (SHH) ligand expression", "setting": "[1]", "value": "increase in expression over time"}]}, {"compound": "CS(=O)(=O)c1ccc(C(=O)Nc2ccc(Cl)c(-c3ccccn3)c2)c(Cl)c1", "note": "[GDC-0449]", "values": [{"measurement": "Pgp substrate", "setting": "Pgp", "value": "p-glycoprotein (Pgp) substrate"}]}, {"compound": "Nc1ccn([C@@H]2O[C@H](CO)[C@@H](O)C2(F)F)c(=O)n1", "note": "[Gemcitabine]", "values": [{"measurement": "Sonic Hedgehog (SHH) ligand expression", "setting": "[1]", "value": "increase in expression over time"}]}, {"compound": "CC1=C2C[C@H]3[C@@H](CC[C@@H]4C[C@H](NS(C)(=O)=O)CC[C@@]43C)[C@@H]2CC[C@@]2(C1)O[C@@H]1C[C@H](C)CN[C@H]1[C@H]2C", "note": "[IPI-926 (HCl salt)]", "values": [{"measurement": "pIC50", "setting": "hedgehog pathway", "value": "> 7.70"}]}, {"compound": "CC(=O)O[C@@]12CO[C@@H]1C[C@H](O)[C@@]1(C)C(=O)[C@H](O)C3=C(C)[C@@H](OC(=O)[C@H](O)[C@@H](NC(=O)OC(C)(C)C)c4ccccc4)C[C@@](O)([C@@H](OC(=O)c4ccccc4)[C@H]21)C3(C)C", "note": "[docetaxel, reference compound]", "values": [{"measurement": "tumor volume after cessation of docetaxel", "setting": "[2]", "value": "Tumor reoccurrence was detected"}]}, {"compound": "HhAntag", "values": [{"measurement": "survival vs vehicle", "setting": "[3]; 100 mg/kg, enrolled at 5 weeks of age", "value": "survival benefit"}, {"measurement": "tumor mass", "setting": "[3]; 2 weeks of twice daily 20 mg/kg or 100 mg/kg, enrolled at 3 weeks of age", "value": "substantial decrease in tumor mass"}]}]}
